≈ marks a conversion by molar mass, not a printed value. Where two headings read alike, the source gives them in different places.
Tests used:
Format in all cases: cell-based
Haemophilus influenzae = assay: Susceptibility testing, NCCLS microdilution MIC; details: for MIC: Haemophilus influenzae
Enterococcus faecalis = assay: Susceptibility testing, NCCLS microdilution MIC; details: for MIC: Enterococcus faecalis
Bacteroides fragilis = assay: Susceptibility testing, NCCLS microdilution MIC (anaerobe); details: for MIC: Bacteroides fragilis
Staphylococcus aureus = assay: Susceptibility testing, NCCLS microdilution MIC; details: ATCC25923, S. aureus ATCC 25923, Example A′, read-out: MIC S. aureus
[1] = ATCC31517, Example A′, strain ATCC 31517, 24 h at 35° C., read-out: MIC against H. influenzae strain ATCC 31517
[2] = Example A′, strain ATCC29212, 24 h at 35° C., read-out: MIC against Enterococcus faecalis strain ATCC29212
[3] = ATCC25285, B. fragilis ATCC 25285, NCCLS microdilution, anaerobe, read-out: MIC B. fragilis
[4] = Example A, strain ATCC25285, anaerobe, 35° C. for 46-48 h, read-out: MIC against Bacteroides fragilis strain ATCC25285
[5] = ATCC31517, H. influenzae ATCC 31517, NCCLS microdilution, read-out: MIC H. influenzae
[6] = ATCC29212, E. faecalis ATCC 29212, NCCLS microdilution, read-out: MIC E. faecalis
[7] = Example A, strain ATCC29212, 16-20 h at 35° C., read-out: MIC against Enterococcus faecalis strain ATCC29212
[8] = ATCC25285, B. fragilis ATCC 25285, Example A′, read-out: MIC B. fragilis
[9] = ATCC31517, H. influenzae ATCC 31517, Example A′, read-out: MIC H. influenzae
[10] = ATCC29212, E. faecalis ATCC 29212, Example A′, read-out: MIC E. faecalis
[11] = ATCC31517, Example A, strain ATCC 31517, 16-20 h at 35° C., read-out: MIC against H. influenzae strain ATCC 31517

MIC (Haemophilus influenzae; [1])	MIC (Enterococcus faecalis; [2])	MIC (Bacteroides fragilis; [3])	MIC (Bacteroides fragilis; [4])	MIC (Haemophilus influenzae; [5])	MIC (Enterococcus faecalis; [6])	MIC (Enterococcus faecalis; [7])	SMILES	other results
≥ 0.5 mg/L							CS[C@H]1O[C@H]([C@H](NC(=O)[C@@H]2C[C@@H](C/C=C/c3ccncc3)CN2)C(C)C)[C@H](O)[C@H](O)[C@H]1O (stereo in doubt) [Example 2, 4-(3-Pyridin-4-yl-allyl)-pyrrolidine-2-carboxylic acid [2-methyl-1-(3,4,5-trihydroxy-6-methylsulfanyl-tetrahydro-pyran-2-yl)-propyl]-amide]	
≥ 0.5 mg/L	≤ 0.125 mg/L						CS[C@H]1O[C@H]([C@H](NC(=O)[C@@H]2C[C@@H](CCCc3ccncc3)CN2)C(C)C)[C@H](O)[C@H](O)[C@H]1O (stereo in doubt) [Example 3, 4-(3-Pyridin-4-yl-propyl)-pyrrolidine-2-carboxylic acid [2-methyl-1-(3,4,5-trihydroxy-6-methylsulfanyl-tetrahydro-pyran-2-yl)-propyl]-amide]	
≥ 0.5 mg/L	≤ 0.125 mg/L						CCCCS[C@@H]1CN[C@H](C(=O)N[C@@H]([C@H]2O[C@H](SC)[C@H](O)[C@@H](O)[C@H]2O)[C@@H](C)O)C1 (stereo in doubt) [Example 4, 4-Butylsulfanyl-pyrrolidine-2-carboxylic acid [2-hydroxy-1-(3,4,5-trihydroxy-6-methylsulfanyl-tetrahydro-pyran-2-yl)-propyl]-amide]	
≥ 0.5 mg/L	≤ 0.125 mg/L						CCS[C@@H]1CN[C@H](C(=O)N[C@@H]([C@H]2O[C@H](SC)[C@H](O)[C@@H](O)[C@H]2O)[C@H](C)Cl)C1 (stereo in doubt) [Example 8, 4-Ethylsulfanyl-pyrrolidine-2-carboxylic acid [2-chloro-1-(3,4,5-trihydroxy-6-methylsulfanyl-tetrahydro-pyran-2-yl)-propyl]-amide]	
≥ 0.5 mg/L	≤ 0.125 mg/L						CS[C@H]1O[C@H]([C@H](NC(=O)[C@@H]2C[C@H](Sc3ccc(F)cc3)CN2)[C@@H](C)O)[C@H](O)[C@H](O)[C@H]1O (stereo in doubt) [Example 10, 4-(4-Fluoro-phenylsulfanyl)-pyrrolidine-2-carboxylic acid [2-hydroxy-1-(3,4,5-trihydroxy-6-methylsulfanyl-tetrahydro-pyran-2-yl)-propyl]-amide]	
≥ 0.5 mg/L							CS[C@H]1O[C@H]([C@H](NC(=O)[C@@H]2C[C@H](SCCC(C)C)CN2)[C@@H](C)O)[C@H](O)[C@H](O)[C@H]1O (stereo in doubt) [Example 12, 4-(3-Methyl-butylsulfanyl)-pyrrolidine-2-carboxylic acid [2-hydroxy-1-(3,4,5-trihydroxy-6-methylsulfanyl-tetrahydro-pyran-2-yl)-propyl]-amide]	
		0.125 mg/L (≈ 0.269 µM)	≤ 0.5 mg/L	2 mg/L (≈ 4.3 µM)	0.03 mg/L (≈ 0.0645 µM)	≤ 0.125 mg/L	CS[C@H]1OC([C@H](NC(=O)[C@@H]2C[C@H](CCC3CCC3)CCN2)[C@H](C)Cl)[C@H](O)[C@H](O)[C@H]1O (stereo in doubt) [Example 81, 4-(2-Cyclobutyl-ethyl)-piperidine-2-carboxylic acid [2-chloro-1-(3,4,5-trihydroxy-6-methylsulfanyl-tetrahydro-pyran-2-yl)-propyl]-amide]	
		0.25 mg/L (≈ 0.554 µM)	≤ 0.5 mg/L	2 mg/L (≈ 4.43 µM)	0.125 mg/L (≈ 0.277 µM)	≤ 0.125 mg/L	CS[C@H]1OC([C@H](NC(=O)[C@@H]2C[C@H](CC3CCC3)CCN2)[C@H](C)Cl)[C@H](O)[C@H](O)[C@H]1O (stereo in doubt) [Example 82, 4-Cyclobutylmethyl-piperidine-2-carboxylic acid [2-chloro-1-(3,4,5-trihydroxy-6-methylsulfanyl-tetrahydro-pyran-2-yl)-propyl]-amide]	
≥ 0.5 mg/L							CS[C@H]1O[C@H]([C@H](NC(=O)[C@@H]2C[C@@H](CC=C(F)F)CN2)C(C)C)[C@H](O)[C@H](O)[C@H]1O [Example 1, 4-(3,3-difluoroprop-2-ene)-pyrrolidine-2-carboxylic acid [2-methyl-1-(3,4,5-trihydroxy-6-methylsulfanyl-tetrahydro-pyran-2-yl)-propyl]-amide]	
≥ 0.5 mg/L	≤ 0.125 mg/L						CCS[C@@H]1CN[C@H](C(=O)N[C@@H]([C@H]2O[C@H](SC)[C@H](O)[C@@H](O)[C@H]2O)[C@@H](C)O)C1 [Example 5, 4-Ethylsulfanyl-pyrrolidine-2-carboxylic acid [2-hydroxy-1-(3,4,5-trihydroxy-6-methylsulfanyl-tetrahydro-pyran-2-yl)-propyl]-amide]	
≥ 0.5 mg/L	≤ 0.125 mg/L						CS[C@H]1O[C@H]([C@H](NC(=O)[C@@H]2C[C@H](SCCC(F)(F)F)CN2)[C@@H](C)O)[C@H](O)[C@H](O)[C@H]1O [Example 11, 4-(3,3,3-Trifluoro-propylsulfanyl)-pyrrolidine-2-carboxylic acid [2-hydroxy-1-(3,4,5-trihydroxy-6-methylsulfanyl-tetrahydro-pyran-2-yl)-propyl]-amide]	
							CCOCCC[C@@H]1CCN[C@H](C(=O)N[C@@H]([C@H]2O[C@H](SC)[C@H](O)[C@@H](O)[C@H]2O)[C@H](C)Cl)CC1 [Example 19′, 5-(3-Ethoxy-propyl)-azepane-2-carboxylic acid [2-chloro-1-(3,4,5-trihydroxy-6-methylsulfanyl-tetrahydro-pyran-2-yl)-propyl]-amide]	MIC (Staphylococcus aureus): 0.125 mg/L (≈ 0.259 µM); MIC (Bacteroides fragilis; [8]): 8 mg/L (≈ 16.6 µM); MIC (Haemophilus influenzae; [9]): 4 mg/L (≈ 8.28 µM); MIC (Enterococcus faecalis; [10]): 2 mg/L (≈ 4.14 µM)
							CS[C@H]1O[C@H]([C@H](NC(=O)[C@@H]2CC[C@H](CCCOCCF)CCN2)[C@H](C)Cl)[C@H](O)[C@H](O)[C@H]1O [Example 20′, 5-[3-(2-Fluoro-ethoxy)-propyl]-azepane-2-carboxylic acid [2-chloro-1-(3,4,5-trihydroxy-6-methylsulfanyl-tetrahydro-pyran-2-yl)-propyl]-amide]	MIC (Staphylococcus aureus): 0.125 mg/L (≈ 0.249 µM); MIC (Bacteroides fragilis; [8]): 8 mg/L (≈ 16 µM); MIC (Haemophilus influenzae; [9]): 2 mg/L (≈ 3.99 µM); MIC (Enterococcus faecalis; [10]): 2 mg/L (≈ 3.99 µM)
		0.125 mg/L (≈ 0.285 µM)	≤ 0.5 mg/L	0.5 mg/L (≈ 1.14 µM)	0.125 mg/L (≈ 0.285 µM)	≤ 0.125 mg/L	CCCC1CCN[C@H](C(=O)N[C@@H]([C@H]2O[C@H](SC)[C@H](O)[C@@H](O)[C@H]2O)[C@H](C)Cl)CC1 (stereo partly shown) [Example 47, 5-Propyl-azepane-2-carboxylic acid [2-chloro-1-(3,4,5-trihydroxy-6-methylsulfanyl-tetrahydro-pyran-2-yl)-propyl]-amide]	MIC (Haemophilus influenzae; [11]): 0.5 mg/L (≈ 1.14 µM); MIC (Haemophilus influenzae; Example A, strain not stated, 16-20 h at 35° C., read-out: MIC against Haemophilus influenzae): ≥ 4 mg/L
		0.125 mg/L (≈ 0.276 µM)	≤ 0.5 mg/L	0.5 mg/L (≈ 1.1 µM)	0.03 mg/L (≈ 0.0662 µM)	≤ 0.125 mg/L	CCCCC1CCN[C@H](C(=O)N[C@@H]([C@H]2O[C@H](SC)[C@H](O)[C@@H](O)[C@H]2O)[C@H](C)Cl)CC1 (stereo partly shown) [Example 144, 5-Butyl-azepane-2-carboxylic acid [2-chloro-1-(3,4,5-trihydroxy-6-methylsulfanyl-tetrahydro-pyran-2-yl)-propyl]-amide]	MIC (Haemophilus influenzae; [11]): 0.5 mg/L (≈ 1.1 µM)
		0.5 mg/L (≈ 1.07 µM)	≤ 0.5 mg/L	0.5 mg/L (≈ 1.07 µM)	0.125 mg/L (≈ 0.268 µM)	≤ 0.125 mg/L	CCCCCC1CCN[C@H](C(=O)N[C@@H]([C@H]2O[C@H](SC)[C@H](O)[C@@H](O)[C@H]2O)[C@H](C)Cl)CC1 (stereo partly shown) [Example 145, 5-Pentyl-azepane-2-carboxylic acid [2-chloro-1-(3,4,5-trihydroxy-6-methylsulfanyl-tetrahydro-pyran-2-yl)-propyl]-amide]	MIC (Haemophilus influenzae; [11]): 0.5 mg/L (≈ 1.07 µM)
8 mg/L (≈ 18.8 µM)	> 8 mg/L	2 mg/L (≈ 4.71 µM)	2 mg/L (≈ 4.71 µM)	8 mg/L (≈ 18.8 µM)	> 8 mg/L	> 8 mg/L	CCC[C@@H]1C[C@@H](C(=O)N[C@@H]([C@H]2O[C@H](SC)[C@H](O)[C@@H](O)[C@H]2O)[C@H](C)Cl)N(C)C1 [clindamycin, reference compound]	MIC (Staphylococcus aureus): 0.125 mg/L (≈ 0.294 µM); MIC B. fragilis (Bacteroides fragilis; B. fragilis ATCC 25285, Example A′): 2 mg/L (≈ 4.71 µM); MIC H. influenzae (Haemophilus influenzae; H. influenzae ATCC 31517, Example A′): 8 mg/L (≈ 18.8 µM); MIC (Haemophilus influenzae; [11]): 8 mg/L (≈ 18.8 µM); MIC E. faecalis (Enterococcus faecalis; E. faecalis ATCC 29212, Example A′): >8 mg/L

— US7361743B2 (Pfizer Inc, priority 2004, dated 2008)
